# Assays:
# [1] = system: BAEC; assay: [3H]-thymidine incorporation (DNA synthesis); assay type: cell-based, bovine; settings: 24 hours
# Description: Effect of QK on cell proliferation. a) DNA synthesis. BAEC were incubated in DMEM with [^3H]-thymidine and QK in absence or in presence of VEGF165 (100 ng/ml). After 24 hours cells were fixed and lysed. Scintillation liquid was added and [^3H]-thymidine incorporation was evaluated. b) Cell proliferation. BAEC were stimulated with the indicated amount of QK in absence or in presence of VEGF165 (100 ng/ml). Cell number was determined at 24 hours after stimulation. c) RB phosphorylation. p-RB was evaluated at 12 and 18 hours after stimulation with QK (10^-6M), VEGF165 (100 ng/ml) and VEGF 15 (10^−6 M).
# [^3H]-thymidine incorporation. Cells were serum starved for 24 hours and then incubated in DMEM with [^3H]-thymidine (Amersham) and QK alone (10^−12-10^−6 M) or with a combination of QK and VEGF165. After 24 hours cells were fixed with trichloracetic acid ([…]) and dissolved in NaOH 1M. Scintillation liquid was added and thymidine incorporation was evaluated with a beta counter.
# [2] = biological target: T1, KDR (Bos taurus, UniProt A0AAA9SPC9); assay: KDR activation (immunoprecipitation, phospho-tyrosine western blot) in BAEC; assay type: cell-based, bovine; settings: 15 minutes of exposure
# T1 construct: we immunoprecipitated total KDR and Flt-1 from BAEC whole extracts; endogenous in cells; host or cells: BAEC (bovine aorta endothelial cells, SV40-immortalized)
# T1 sequence (A0AAA9SPC9 20-1356): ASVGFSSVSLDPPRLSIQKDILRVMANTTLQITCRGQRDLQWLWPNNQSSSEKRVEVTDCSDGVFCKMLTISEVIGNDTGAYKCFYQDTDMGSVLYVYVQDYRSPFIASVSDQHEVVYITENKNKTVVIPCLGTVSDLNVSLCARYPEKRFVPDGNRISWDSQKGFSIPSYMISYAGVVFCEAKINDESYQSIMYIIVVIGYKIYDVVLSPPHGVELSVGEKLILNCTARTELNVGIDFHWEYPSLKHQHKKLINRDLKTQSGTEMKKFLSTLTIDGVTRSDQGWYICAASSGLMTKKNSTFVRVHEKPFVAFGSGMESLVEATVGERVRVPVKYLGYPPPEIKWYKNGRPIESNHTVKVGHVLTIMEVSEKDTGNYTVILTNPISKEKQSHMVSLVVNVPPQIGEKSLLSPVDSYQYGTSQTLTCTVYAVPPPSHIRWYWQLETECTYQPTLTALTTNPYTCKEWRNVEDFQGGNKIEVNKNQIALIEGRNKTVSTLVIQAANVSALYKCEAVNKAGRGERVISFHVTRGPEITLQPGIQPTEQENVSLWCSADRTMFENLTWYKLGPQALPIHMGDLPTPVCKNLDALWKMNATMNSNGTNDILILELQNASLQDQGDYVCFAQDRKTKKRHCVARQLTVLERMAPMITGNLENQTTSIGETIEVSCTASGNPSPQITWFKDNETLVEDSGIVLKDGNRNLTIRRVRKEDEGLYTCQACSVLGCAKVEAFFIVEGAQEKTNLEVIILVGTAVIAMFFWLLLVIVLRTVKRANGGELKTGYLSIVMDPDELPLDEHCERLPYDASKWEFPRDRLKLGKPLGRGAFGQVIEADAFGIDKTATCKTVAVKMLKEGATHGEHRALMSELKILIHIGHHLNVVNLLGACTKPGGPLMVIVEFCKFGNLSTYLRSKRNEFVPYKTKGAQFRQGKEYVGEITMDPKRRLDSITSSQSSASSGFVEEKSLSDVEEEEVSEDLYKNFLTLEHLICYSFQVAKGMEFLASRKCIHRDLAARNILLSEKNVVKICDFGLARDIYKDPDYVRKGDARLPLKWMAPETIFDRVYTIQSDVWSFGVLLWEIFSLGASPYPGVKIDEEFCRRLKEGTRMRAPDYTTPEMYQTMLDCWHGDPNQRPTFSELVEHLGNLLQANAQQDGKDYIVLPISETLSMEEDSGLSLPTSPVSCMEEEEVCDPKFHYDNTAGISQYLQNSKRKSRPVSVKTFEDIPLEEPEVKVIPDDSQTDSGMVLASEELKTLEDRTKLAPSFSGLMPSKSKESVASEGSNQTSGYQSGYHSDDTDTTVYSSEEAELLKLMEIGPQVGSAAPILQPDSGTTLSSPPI
# Description: VEGF receptors binding and activation. a) VEGF competitive binding on BAEC. 1 μg of membrane protein was plated with QK and [^125I]-VEGF (500000 cpm, 10^−10 M). b) KDR activation. After stimulation total KDR was immunoprecipitated from a whole-cell protein extracts and phospho-tyrosine was visualized by a specific antibody, anti-rabbit HRP-conjugated secondary antibody and standard chemiluminescence. c) Flt-1 activation. After stimulation total Flt-1 was immunoprecipitated from a whole-cell protein extracts and phospho-tyrosine was visualized by specific antibody, anti-rabbit HRP-conjugated secondary antibody and standard chemiluminescence.
# Western blot. Cells were plated on six-well dishes and serum starved overnight. On the next day, cells were treated with different amount of peptide in absence or in presence of VEGF165 for 15 minutes at 37° C. and then dissolved in RIPA-SDS buffer (50 mM Tris-HCl (pH 7.5), 150 mM NaCl, 1% NP-40, 0.25% deoxycholate, 9.4 mg/50 ml sodium orthovanadate, […]). In some experiments, total KDR and Flt-1 were immunoprecipitated from an equal amount of whole-cell protein extracts using protein A/G agarose beads conjugated with antibodies raised against total KDR or Flt-1 (R&D). Proteins from whole-cell extracts or immunocomplexes were resolved by PAGE and transferred to nitrocellulose. […]
# [3] = system: Human endothelial cells; assay: Angiogenesis in vitro assay (Angiokit, tubule formation, CD31 staining); assay type: cell-based; settings: eleventh day
# Description: In vitro angiogenic properties of QK. Human endothelial cells were co-cultured with other human cells in a specially designed medium in a 24 well plate. Every three days, QK alone or a combination of QK and VEGF165 (100 ng/ml) was added to the cultures. On the eleventh day, cells were fixed with ice cold 70% ethanol and tubule formation was visualized by staining for anti-human CD31 (PECAM-1).
# Angiogenesis in vitro assay. Human endothelial cells were co-cultured with other human cells in a specially designed medium (Angiokit, TCS CellWorks), in a 24 well plates. Every three days, QK in absence or in presence of VEGF165 was added to the cultures. VEGF and suramine (20 μM) were used as positive and negative controls respectively. […] On the eleventh day, cells were fixed with ice cold 70% ethanol and tubule formation was visualized by staining for anti-human CD31 (PECAM-1). Results were scored with the image analysis software, Angiosys software (TCS CellWorks).
# In vitro angiogenesis assay. […] Tubule formation was evaluated by positive staining for CD31/PECAM-1, an intercellular adhesion molecule involved in leucocytes diapedesis. We determined the number of cell junctions corrected by the total tubules length.
# [4] = system: ERK1/2; assay: ERK1/2 activation in BAEC (western blot); assay type: cell-based, bovine
# Description: Effect of QK and VEGF15 on ERK1/2 activation. Serum deprived BAEC were treated with QK (a) or with VEGF 15 (b) in absence or in presence of VEGF165 (100 ng/ml) for 15 minutes at 37° C. and then dissolved in RIPA-SDS buffer. Total ERK1/2 and the phosphorylated form of ERK1/2 were visualized by specific antibodies.
# Western blot. Cells were plated on six-well dishes and serum starved overnight. On the next day, cells were treated with different amount of peptide in absence or in presence of VEGF165 for 15 minutes at 37° C. and then dissolved in RIPA-SDS buffer (50 mM Tris-HCl (pH 7.5), 150 mM NaCl, 1% NP-40, 0.25% deoxycholate, 9.4 mg/50 ml sodium orthovanadate, […]). In some experiments, total KDR and Flt-1 were immunoprecipitated from an equal amount of whole-cell protein extracts using protein A/G agarose beads conjugated with antibodies raised against total KDR or Flt-1 (R&D). Proteins from whole-cell extracts or immunocomplexes were resolved by PAGE and transferred to nitrocellulose. Total extracellular signal-regulated kinase 1 and 2 (ERK1/2), serine-tyrosin phosphorylated ERK1/2, phospho-tyrosine (Cell signaling) and phospho-RB (p-RB) (Santacruz) were visualized by specific antibodies, anti-rabbit HRP-conjugated secondary antibody (Santacruz) and standard chemiluminescence (Pierce).
# Activation of the proliferative intracellular pathways. We then explored whether QK is able to start the pathways of endothelial cell activation. It is well established that angiogenesis modulate by VEGF is largely ERK1/2 dependent, leading to DNA synthesis and cell proliferation (7). Accordingly, we assessed the effects of QK on this kinase. […] To verify whether ERK1/2 activation to QK results in cell proliferation, we studied cell proliferation indicators such as cell number, DNA synthesis and cyclin activation.
# [5] = system: WKY rats; assay: Ischemic hindlimb model, digital angiographies and blood flow determination; assay type: in vivo, rat; settings: 14 days
sequence,measurement,setting,value
KLTWQELYQLKYKGI [QK],DNA synthesis ([3H]-thymidine incorporation),[1]; peptide alone,increased DNA synthesis at any dosages
same,DNA synthesis in presence of VEGF,[1]; with VEGF165 100 ng/ml,the effect was enhanced in presence of VEGF
same,phospho-KDR levels,[2],reduced phospho-KDR below the levels in unstimulated cells
same,formation of new connections,[3]; peptide alone,induced the formation of new connections in a dose dependent manner
same,formation of new connections in presence of VEGF165,[3]; with VEGF165 100 ng/ml,enhanced the response to VEGF165
same,ERK1/2 activation in presence of VEGF,"[4]; BAEC, with VEGF165 100 ng/ml, 15 minutes",additive to VEGF
same,ERK1/2 activation,"[4]; serum deprived BAEC, 15 minutes at 37° C.",leaded to ERK1/2 activation in a dose dependent fashion
same,BEADS Ischemic to non ischemic,"[5]; dyed beads dilution, muscle ratio, infusion 10^-7 M",0.98 ± 0.12
same,ANGIOGRAPHY Number of TFC,"[5]; ischemic hindlimb, chronic intrafemoral artery infusion 10^-7 M",16 ± 2

# — US20090305994A1, “Compounds Modulating Vegf Receptor and Uses Thereof” (priority 2005, published 2009)
